According to US9670199B2, “Ergoline derivatives as dopamine receptor modulators” (REGENTS OF THE UNIVERSITY OF MINNESOTA, priority 2012, dated 2017):
Each block holds one compound with its values, some of them ahead of it.

How the values were obtained:
male rats = experiment: Effects on sexual function in rats; format: in vivo, rat; conditions: gavage
Source text: Effects of Cabergoline on Sexual Function in Rats. […] This can be tested by seeing whether it can potentiate the induction of a conditioned partner preference. For example, a study could be performed where rats take the drug immediately before their first sexual experience with an almond scented female and 4 days later the cabergoline rats are put in an open field with two females, one scented and the other unscented. Males given their first, e.g., 10, copulatory experiences with scented females would show a significant conditioned ejaculatory preference to ejaculate preferentially with the scented female. […] Cabergoline could also be similarly tested on males that have had their ejaculations reduced to near zero by chronic administration of the SSRI fluoxetine. SSRIs are known to induce anorgasmia, and currently there is no treatment for this side effect.

5-HT2B receptor [1] = target: T1, 5-HT2B receptor (Homo sapiens, UniProt P41595); experiment: 5-HT2B functional assay (agonism), HTRF quantitation of IP1 accumulation; format: cell-based; conditions: for 5-HT2B agonism (type of agonist): result in words
Source text: (§1) The biological activity of representative compounds of the invention can be determined using a number of assays that are known.

5-HT2B receptor [2] = target: T1, 5-HT2B receptor; experiment: 5-HT2B competitive binding assay against 125I-radiolabeled 2,5-dimethoxy-4-iodoamphetamine (agonist radioligand); conditions: result in words
Source text: as §1

D4 receptor = target: T2, D4 receptor (Homo sapiens, UniProt P21917); experiment: D4 functional assay; format: cell-based; conditions: result in words
T2 sequence (P21917 1-419): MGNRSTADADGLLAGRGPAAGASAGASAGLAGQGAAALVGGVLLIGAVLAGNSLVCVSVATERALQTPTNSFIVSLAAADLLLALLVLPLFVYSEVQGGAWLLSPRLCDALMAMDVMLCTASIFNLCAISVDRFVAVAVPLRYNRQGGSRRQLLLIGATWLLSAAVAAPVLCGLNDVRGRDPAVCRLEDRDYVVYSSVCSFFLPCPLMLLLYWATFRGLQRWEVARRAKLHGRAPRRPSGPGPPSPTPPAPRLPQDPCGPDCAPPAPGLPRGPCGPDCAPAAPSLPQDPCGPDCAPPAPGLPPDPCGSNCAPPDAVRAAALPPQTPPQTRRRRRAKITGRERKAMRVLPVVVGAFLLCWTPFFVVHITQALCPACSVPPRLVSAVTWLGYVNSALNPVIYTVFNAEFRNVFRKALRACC
Protocol: (§2) The biological activity of representative compounds of the invention can be determined using a number of assays that are known. For example, 5-HT2B functional assays were performed following the procedure reported by Porter, R. H. P., et al., Br. J. Pharmacol. 1999, 128, 13-20. 5-HT2B binding assays were performed following the procedure reported by Choi, D.-S., et al., FEBS Lett. 1994, 352, 393-399, using an agonist radioligand. D2 and D4 functional assays were performed following the method reported by Jensen, N. H., et al., Neuropsychopharmacology 2007, 33, 2303-2312.

5-HT2B receptor [3] = target: T1, 5-HT2B receptor; experiment: 5-HT2B functional assay, antagonism against serotonin; format: cell-based; conditions: result in words
Protocol: as §2

D2 receptor = D2 receptor (Homo sapiens, UniProt P14416); experiment: D2 functional assay; format: cell-based
Protocol: as §2

T1 sequence (P41595 whole entry): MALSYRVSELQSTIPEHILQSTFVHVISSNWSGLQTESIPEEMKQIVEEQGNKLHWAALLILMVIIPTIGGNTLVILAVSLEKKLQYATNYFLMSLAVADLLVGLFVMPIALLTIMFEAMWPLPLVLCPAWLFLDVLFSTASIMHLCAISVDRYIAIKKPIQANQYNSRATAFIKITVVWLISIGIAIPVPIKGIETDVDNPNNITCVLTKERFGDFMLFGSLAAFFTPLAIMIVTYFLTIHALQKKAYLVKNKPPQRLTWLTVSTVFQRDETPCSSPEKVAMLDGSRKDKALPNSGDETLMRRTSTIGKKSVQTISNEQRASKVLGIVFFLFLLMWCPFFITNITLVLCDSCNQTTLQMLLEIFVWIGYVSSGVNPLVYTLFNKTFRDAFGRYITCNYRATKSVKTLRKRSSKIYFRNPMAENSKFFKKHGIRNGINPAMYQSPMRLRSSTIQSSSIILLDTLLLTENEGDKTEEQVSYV
Chain of D2 receptor (P14416 whole entry): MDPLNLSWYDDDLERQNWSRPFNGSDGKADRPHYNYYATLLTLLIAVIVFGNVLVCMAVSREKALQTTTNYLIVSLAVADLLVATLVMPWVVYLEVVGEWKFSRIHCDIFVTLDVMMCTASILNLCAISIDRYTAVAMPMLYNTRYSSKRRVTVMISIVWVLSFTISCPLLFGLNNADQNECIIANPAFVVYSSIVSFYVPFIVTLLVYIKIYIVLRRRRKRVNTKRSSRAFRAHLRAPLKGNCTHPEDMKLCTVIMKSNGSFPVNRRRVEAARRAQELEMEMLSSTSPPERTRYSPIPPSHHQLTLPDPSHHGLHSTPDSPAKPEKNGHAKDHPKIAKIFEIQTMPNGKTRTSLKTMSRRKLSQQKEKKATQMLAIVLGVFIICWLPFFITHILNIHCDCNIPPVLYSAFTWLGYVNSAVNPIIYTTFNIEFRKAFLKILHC

5-HT2B agonism (type of agonist) (5-HT2B receptor [1]): full agonists
SMILES: C=CCN1C[C@H](C(=O)N(CCCN(C)C)C(=O)NCC)C[C@@H]2c3cccc4[nH]cc(c34)C[C@H]21 [cabergoline]
anticipatory level changes prior to copulation (anticipatory desire) (male rats): increased
ejaculation latencies vs controls (male rats): shorter ejaculation latencies
intromissions before ejaculation vs controls (male rats): more intromissions
number of ejaculations vs controls (male rats): significantly more times

SMILES: C=CCN1C[C@H](C(=O)N(CCCN2CCOCC2)C(=O)NCC)C[C@@H]2c3cccc4[nH]cc(c34)C[C@H]21 [Compound 1, (5R,8R,10R)-6-Allyl-N-[3-(morpholino)propyl]-N-[(ethylamino)carbonyl]-ergoline-8-carboxamide]
activity/potency at 5-HT2B receptor in radioactive binding assay, compared with cabergoline (5-HT2B receptor [2]): not significantly less active
5-HT2B agonism (type of agonist) (5-HT2B receptor [1]): full agonists

SMILES: CCNC(=O)N(CCCN(C)C)C(=O)[C@@H]1C[C@@H]2c3cccc4c3c(cn4C)C[C@H]2N(C)C1 [Compound 9, 1,6-Dimethylcabergoline]
D4 agonism (type of agonist) (D4 receptor): full D4 agonist
5-HT2B antagonism against serotonin (5-HT2B receptor [3]): potent antagonists
EC50 (D2 receptor): 1.4 nM
Emax (D2 receptor): 50%
D2 agonism (type of agonist) (D2 receptor; result in words): potent but partial D2 agonist
5-HT2B agonism (type of agonist) (5-HT2B receptor [1]): no agonism

SMILES: CN(C)CCCNC(=O)[C@@H]1C[C@@H]2c3cccc4c3c(cn4C)C[C@H]2N(C)C1 [Compound 14, (5R,8R,10R)-1,6-Dimethyl-N-[3-(dimethylamino)propyl]ergoline-8-carboxamide]
5-HT2B antagonism against serotonin (5-HT2B receptor [3]): potent antagonists
Emax (5-HT2B receptor [1]; read-out: 5-HT2B Emax): < 12%
5-HT2B agonism (type of agonist) (5-HT2B receptor [1]): minimal to no agonism

SMILES: COC(OC)[C@@H]1C[C@@H]2c3cccc4c3c(cn4C)C[C@H]2N(C)C1 [Compound 15]
5-HT2B antagonism against serotonin (5-HT2B receptor [3]): potent antagonists
5-HT2B agonism (type of agonist) (5-HT2B receptor [1]): no agonism
